{"source": "patent US20210330611A1", "about": "“THERAPY FOR NEUROLOGICAL DISEASES/DISORDERS” (priority 2020, published 2021)", "key": {"[1]": {"system": "fibrin-induced microglia activation", "assay": "Image-based assay of fibrin-induced microglia activation (HTS and dose response)", "format": "cell-based, rat", "details": "for inhibition at 10 µM: read-out: Fibrin % inhibition"}, "[2]": {"system": "LPS-induced microglia activation", "assay": "Image-based assay of LPS-induced microglia activation (HTS and dose response)", "format": "cell-based, rat"}, "[3]": {"system": "fibrin- and LPS-induced microglia activation", "assay": "cells", "format": "cell-based, rat"}, "[4]": {"system": "primary rat microglia"}, "[5]": {"system": "primary rat microglia", "assay": "Cell toxicity (dead cells, size <150 μm2) in coated fibrin (cFib) assay;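 for Fibrin % cell toxicity: share of dead cells sized under 150 µm2 at 10 µM in fibrin-stimulated microglia HTS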", "details": "for Fibrin % cell toxicity: primary microglia HTS"}, "[6]": {"details": "Rattus norvegicus, Microglia, 48 h, read-out: LPS % inhibition"}, "[7]": {"details": "quadrant by fibrin and LPS inhibition in HTS of 1907 compounds"}, "[8]": {"details": "primary microglia HTS, LPS stimulation, compounds at 10 μM; 10 µM"}, "[9]": {"details": "quadrant by fibrin and LPS inhibition, HTS at 10 μM"}, "[10]": {"details": "Rattus norvegicus, Microglia, primary microglia HTS, LPS stimulation, compounds at 10 μM; read-out: LPS % inhibition"}, "[11]": {"details": "classification by fibrin and LPS inhibition, HTS at 10 μM"}, "[12]": {"details": "fibrin assay, dead cells (size <150 μm2), compounds at 10 μM"}, "[13]": {"details": "fibrin assay, dead cells (size <150 μm2)"}}, "note": "“And” between values parts separate entries of the source, which are not always exact repeats. Identical values can stand only once. Counter-ions that a name gives are not always drawn. Like-named read-outs stand apart in the source and are kept apart here.", "data": [{"smiles": "CC[C@H]1CN2CCc3cc(OC)c(OC)cc3[C@@H]2C[C@@H]1C[C@H]1NCCc2cc(OC)c(OC)cc21", "note": "[Emetine, Emetine Dihydrochloride]", "values": [{"measurement": "Fibrin % inhibition", "setting": "[1]", "result": 117, "unit": "%"}, {"measurement": "LPS % inhibition", "setting": "[2]", "result": 115, "unit": "%"}, {"measurement": "Quadrant (FIG. 5b)", "setting": "[3]", "result": "Q2"}, {"measurement": "LPS % cell toxicity", "setting": "[4]", "result": 46, "unit": "%"}]}, {"smiles": "CC(C)c1cccc(C(C)C)c1O", "note": "[Propofol]", "values": [{"measurement": "inhibition at 10 µM", "setting": "[1]; Rattus norvegicus, Microglia", "result": -18, "unit": "%"}, {"measurement": "inhibition at 10 µM", "setting": "[2]; [6]", "result": 11, "unit": "%"}, {"measurement": "Quadrant (FIG. 5b)", "setting": "[3]", "result": "Q4"}, {"measurement": "LPS % cell toxicity", "setting": "[4]; rat", "result": 0, "unit": "%"}]}, {"smiles": "CC(C)NCC(O)COc1cccc2ccccc12", "note": "(centres unmarked) [Propranolol]", "values": [{"measurement": "Fibrin % inhibition", "setting": "[1]", "result": "−30", "unit": "%"}, {"measurement": "inhibition at 10 µM", "setting": "[2]; [6]", "result": 2, "unit": "%"}, {"measurement": "Quadrant (FIG. 5b)", "setting": "[3]", "result": "Q4"}, {"measurement": "LPS % cell toxicity", "setting": "[4]; rat", "result": 0, "unit": "%"}]}, {"smiles": "O=C(O)C(O)C(O)C(=O)O.OCc1cccnc1", "note": "(centres unmarked) [Nicotinyl Alcohol Tartrate]", "values": [{"measurement": "Quadrant (FIG. 5b)", "setting": "[3]; [7]", "result": "Q4"}, {"measurement": "LPS % cell toxicity", "setting": "[4]; rat", "result": 0, "unit": "%"}]}, {"smiles": "CN(C)CCCN1c2ccccc2Sc2ccc(C(F)(F)F)cc21", "note": "[Triflupromazine]", "values": [{"measurement": "LPS % cell toxicity", "setting": "[4]; rat", "result": 1, "unit": "%"}]}, {"smiles": "NC12CC3CC(CC(C3)C1)C2", "note": "[Amantadine]", "values": [{"measurement": "LPS % inhibition", "setting": "[2]; [8]", "result": "3% and −5%"}, {"measurement": "Quadrant (FIG. 5b)", "setting": "[3]; [9]", "result": "Q4"}, {"measurement": "LPS % cell toxicity", "setting": "[4]; rat", "result": 0, "unit": "%"}]}, {"smiles": "CN1C[C@H](C(=O)N[C@]2(C)O[C@@]3(O)[C@@H]4CCCN4C(=O)[C@H](Cc4ccccc4)N3C2=O)C[C@@H]2c3cccc4[nH]cc(c34)C[C@H]21", "note": "[Dihydroergotamine]", "values": [{"measurement": "Fibrin % inhibition", "setting": "[1]; primary microglia HTS, fibrin stimulation, compounds at 10 μM, 10 µM", "result": "7% and −3%"}, {"measurement": "inhibition at 10 µM", "setting": "[2]; [10]", "result": 39, "unit": "%"}, {"measurement": "LPS % inhibition", "setting": "[2]; [8]", "result": 22, "unit": "%"}, {"measurement": "Quadrant (FIG. 5b)", "setting": "[3]; [11]", "result": "Q4"}, {"measurement": "Fibrin % cell toxicity", "setting": "[5]; [12]", "result": "1% and 0%"}]}, {"smiles": "CC(C)=CCc1c2c(c3occ(-c4ccc(O)c(O)c4)c(=O)c3c1O)C=CC(C)(C)O2", "note": "[pomiferin]", "values": [{"measurement": "IC50", "setting": "[1]; Rattus norvegicus, Microglia, Table 7, read-out: fib_IC50", "result": 251, "unit": "nM"}, {"measurement": "IC50", "setting": "[2]; Rattus norvegicus, Microglia, Table 7; read-out: LPS_IC50", "result": 123, "unit": "nM"}, {"measurement": "IC50", "setting": "[5]; Rattus norvegicus, Microglia, read-out: dead_IC50 (uM), Table 7, fibrin or LPS assay not specified", "result": 3.45, "unit": "µM"}]}, {"smiles": "COc1cc2ncnc(Nc3ccc(F)c(Cl)c3)c2cc1OCCCN1CCOCC1", "note": "[Gefitinib]", "values": [{"measurement": "Quadrant (FIG. 5b)", "setting": "[3]", "result": "Q4"}, {"measurement": "LPS % cell toxicity", "setting": "[4]; rat", "result": 0, "unit": "%"}]}, {"smiles": "Clc1ccc2c(c1)CCc1cccnc1C2=C1CCNCC1", "note": "[Desloratadine]", "values": [{"measurement": "Quadrant (FIG. 5b)", "setting": "[3]", "result": "Q4"}, {"measurement": "LPS % cell toxicity", "setting": "[4]; rat", "result": 0, "unit": "%"}]}, {"smiles": "C[C@]12CC[C@@H]3c4ccc(O)cc4CC[C@H]3[C@@H]1CC[C@@H]2O", "note": "[Estradiol]", "values": [{"measurement": "Quadrant (FIG. 5b)", "setting": "[3]; [11]", "result": "Q4"}, {"measurement": "LPS % cell toxicity", "setting": "[4]; rat", "result": 0, "unit": "%"}]}, {"smiles": "CNCCCC12CCC(c3ccccc31)c1ccccc12", "note": "[Maprotiline]", "values": [{"measurement": "Fibrin % inhibition", "setting": "[1]", "result": "−4", "unit": "%"}, {"measurement": "LPS % inhibition", "setting": "[2]", "result": 78, "unit": "%"}, {"measurement": "LPS % cell toxicity", "setting": "[4]; rat", "result": 2, "unit": "%"}]}, {"smiles": "CCN(CC)C(=O)N[C@H]1C=C2c3cccc4[nH]cc(c34)C[C@H]2N(C)C1", "note": "[Lisuride]", "values": [{"measurement": "Quadrant (FIG. 5b)", "setting": "[3]", "result": "Q4"}, {"measurement": "LPS % cell toxicity", "setting": "[4]; rat", "result": 0, "unit": "%"}]}, {"smiles": "CCCc1nc(C)c2c(=O)[nH]c(-c3cc(S(=O)(=O)N4CCN(CC)CC4)ccc3OCC)nn12", "note": "[Vardenafil]", "values": [{"measurement": "inhibition at 10 µM", "setting": "[2]; Rattus norvegicus, Microglia, primary microglia HTS, 10 μM, LPS-stimulated, cell size >800 μm^2 as marker of activation; read-out: LPS % inhibition", "result": 12, "unit": "%"}, {"measurement": "LPS % inhibition", "setting": "[2]; primary microglia HTS, 10 μM, LPS-stimulated, cell size >800 μm^2 as marker of activation", "result": 13, "unit": "%"}, {"measurement": "Quadrant (FIG. 5b)", "setting": "[3]; HTS of 1907 compounds, quadrant by fibrin and LPS inhibition", "result": "Q4"}, {"measurement": "LPS % cell toxicity", "setting": "[4]; rat", "result": 0, "unit": "%"}]}, {"smiles": "CN(C)C(=O)Oc1cc(OC(=O)N(C)C)cc(C(O)CNC(C)(C)C)c1", "note": "(centres unmarked) [Bambuterol]", "values": [{"measurement": "inhibition at 10 µM", "setting": "[2]; [10]", "result": 9, "unit": "%"}, {"measurement": "LPS % inhibition", "setting": "[2]; [8]", "result": 13, "unit": "%"}, {"measurement": "Quadrant (FIG. 5b)", "setting": "[3]; [9]", "result": "Q4"}, {"measurement": "Fibrin % cell toxicity", "setting": "[5]; [13]", "result": 1, "unit": "%"}]}, {"smiles": "O=C1CCc2ccc(OCCCCN3CCN(c4cccc(Cl)c4Cl)CC3)cc2N1", "note": "[Aripiprazole]", "values": [{"measurement": "Quadrant (FIG. 5b)", "setting": "[3]", "result": "Q4"}, {"measurement": "LPS % cell toxicity", "setting": "[4]; rat", "result": 0, "unit": "%"}]}, {"smiles": "CCC(=O)c1c(O)cc(O)cc1O", "note": "[Flopropione]", "values": [{"measurement": "inhibition at 10 µM", "setting": "[1]; Rattus norvegicus, Microglia, primary microglia HTS, fibrin stimulation, activation = cell size >800 μm2", "result": -35, "unit": "%"}, {"measurement": "inhibition at 10 µM", "setting": "[2]; Rattus norvegicus, Microglia, 48 h, primary microglia HTS, LPS stimulation, activation = cell size >800 μm2; read-out: LPS % inhibition", "result": 10, "unit": "%"}, {"measurement": "Quadrant (FIG. 5b)", "setting": "[3]; [7]", "result": "Q4"}, {"measurement": "Fibrin % cell toxicity", "setting": "[5]; fibrin stimulation, toxicity = cell size <150 μm2", "result": 1, "unit": "%"}]}, {"smiles": "Cc1nc2n(c(=O)c1CCN1CCC(c3noc4cc(F)ccc34)CC1)CCCC2", "note": "[Risperidone]", "values": [{"measurement": "Quadrant (FIG. 5b)", "setting": "[3]", "result": "Q4"}, {"measurement": "LPS % cell toxicity", "setting": "[4]; rat", "result": 0, "unit": "%"}]}, {"smiles": "CC(N)C12CC3CC(CC(C3)C1)C2", "note": "(centres unmarked) [Rimantadine]", "values": [{"measurement": "inhibition at 10 µM", "setting": "[1]; Rattus norvegicus, Microglia, primary microglia HTS, fibrin stimulation, cell size >800 μm2 as marker of activation", "result": -19, "unit": "%"}, {"measurement": "inhibition at 10 µM", "setting": "[1]; Rattus norvegicus, Microglia, primary microglia HTS, fibrin stimulation, compounds at 10 μM", "result": 106, "unit": "%"}, {"measurement": "inhibition at 10 µM", "setting": "[2]; Rattus norvegicus, Microglia, 48 h; read-out: LPS % inhibition", "result": 2, "unit": "%"}, {"measurement": "inhibition at 10 µM", "setting": "[2]; [10]", "result": 106, "unit": "%"}, {"measurement": "Quadrant (FIG. 5b)", "setting": "[3]; classification by fibrin and LPS inhibition in HTS", "result": "Q4"}, {"measurement": "Quadrant (FIG. 5b)", "setting": "[3]; [9]", "result": "Q2"}, {"measurement": "Fibrin % cell toxicity", "setting": "[5]; [13]", "result": 93, "unit": "%"}, {"measurement": "Fibrin % cell toxicity", "setting": "[5]; fibrin stimulation, cell size <150 μm2 as marker of toxicity", "result": 0, "unit": "%"}]}, {"smiles": "CC#C[C@]1(O)CC[C@H]2[C@@H]3CCC4=CC(=O)CCC4=C3[C@@H](c3ccc(N(C)C)cc3)C[C@@]21C", "note": "[Mifepristone]", "values": [{"measurement": "inhibition at 10 µM", "setting": "[1]; Rattus norvegicus, Microglia, primary microglia HTS, fibrin stimulation, increased cell size (>800 μm^2) as marker of activation", "result": 12, "unit": "%"}, {"measurement": "Quadrant (FIG. 5b)", "setting": "[3]; [7]", "result": "Q4"}, {"measurement": "LPS % cell toxicity", "setting": "[4]; rat", "result": 0, "unit": "%"}]}, {"smiles": "CCN(CC)C(=O)/C(C#N)=C/c1cc(O)c(O)c([N+](=O)[O-])c1", "note": "[Entacapone]", "values": [{"measurement": "inhibition at 10 µM", "setting": "[2]; [10]", "result": 11, "unit": "%"}, {"measurement": "LPS % inhibition", "setting": "[2]; [8]", "result": 17, "unit": "%"}, {"measurement": "Quadrant (FIG. 5b)", "setting": "[3]; [11]", "result": "Q4"}, {"measurement": "Fibrin % cell toxicity", "setting": "[5]; [12]", "result": 1, "unit": "%"}]}]}
